Values of other authors in patent US20190037897A1, “AMORPHOUS COOLER DISPERSION COMPOSITION” (International Flavors & Fragrances Inc., priority 2016, published 2019).

Conditions: compared to menthol (as 100)

Row | Compound | relative cooling strength
1 | CC1CCC(C(C)C)C(O)C1 (stereo not shown) [menthol] | 100
2 | CCNC(=O)C1CC(C)CCC1C(C)C (stereo not shown) [WS-3, N-Ethyl-p-menthane-3-carboxamide] | 150
3 | COc1ccc(NC(=O)[C@@H]2C[C@H](C)CC[C@H]2C(C)C)cc1 [WS-12, (1R,2S,5R)-N-(4-Methoxyphenyl)-p-menthanecarboxamide] | 150
4 | Ethyl 3-(p-menthane-3-carboxamido)acetate [WS-5] | 400
